Data on eight molecules can be found in patent publication US9469650B2, “Melampomagnolide B derivatives” (BOARD OF TRUSTEES OF THE UNIVERSITY OF ARKANSAS, priority 2013, dated 2016).

Like-named read-outs stand apart in the source and are kept apart here.

The test system of data set [1] is OVCAR-4. Briefly: panel of 60 human tumor cell lines, growth inhibition (Ovarian Cancer). The class given is cell-based. The following applies: OVCAR-4; for GI50 / IC (TGI) / CC50: Homo sapiens; for CC50: read-out: LC50 (the source's name).
The test system of data set [2] is UACC-62. Briefly: panel of 60 human tumor cell lines, growth inhibition (Melanoma). The settings on record: for GI50 / CC50 / IC (TGI): Homo sapiens; for GI50 / Percent Growth: UACC-62; for CC50: UACC-62, read-out: LC50; for IC (TGI): UACC-62, read-out: TGI.
Data set [3] has as its system AML 052308 cells.
Text: Derivatives were screened for antileukemic activity against AML cells in culture (See FIGS. 1-7).
For data set [4], the system named is HL-60(TB). Briefly: cells. The following applies: Homo sapiens; for GI50: HL-60; for CC50: HL-60, read-out: LC50; for IC (TGI): HL-60, read-out: TGI.
Data set [5] deals with MALME-3M. Briefly: panel of 60 human tumor cell lines, growth inhibition (Melanoma). The settings on record: for GI50 / CC50: Homo sapiens, Malme-3M; for CC50: read-out: LC50; for TGI / Percent Growth: MALME-3M.
For data set [6], the system named is RPMI-8226. Briefly: panel of 60 human tumor cell lines, growth inhibition (Leukemia). The following applies: for GI50 / CC50: Homo sapiens; for GI50 / TGI / Percent Growth: RPMI-8226; for CC50: RPMI-8226, read-out: LC50.

The GI50 is the concentration that inhibits growth by half. Read a high GI50 as lower sensitivity of the cells. For the molecule `C=C1C(=O)O[C@H]2[C@H]1CC/C(COC(=O)OCCCN1CCCCC1)=C\CC[C@@]1(C)O[C@@H]21` [JVM 2-26], in data set [1], the GI50 turned out to be 2.13 µM, the IC (TGI) was determined as 11.6 µM and the CC50 stood at 38.6 µM. Besides, in data set [2], it took 8.05 µM to inhibit growth by half (GI50), the CC50 was found to be 47.1 µM and the IC (TGI) is 11 µM. In addition, in data set [3], the “cytotoxicity compared to MMB” value is reported as “more potent than MMB” and the “fold more cytotoxic than MMB” value is recorded as 3 fold. Further, in data set [4], growth was halved (GI50) at 1.88 µM, the CC50 was 98.7 µM and the IC (TGI) came out at 7.53 µM.
As to `C=C1C(=O)O[C@H]2[C@H]1CC/C(COC(=O)NCCCCCCO)=C\CC[C@@]1(C)O[C@@H]21` [JVM 2-31], the GI50 in data set [1] (NCI five dose) worked out at 4.01 µM; in data set [2] it was 6.78 µM; in data set [4], 3.64 µM. For the same molecule, the IC (TGI) was found to be 19.4 µM in data set [1] (NCI five dose), 21.4 µM in data set [2] and 14.2 µM in data set [4]. In addition, the CC50 in data set [1] (NCI five dose) was 65.1 µM; in data set [2], 53.4 µM; in data set [4] it was greater than 100 µM.
In the case of `C=C1C(=O)O[C@H]2[C@H]1CC/C(COC(=O)OCCN(C)C)=C\CC[C@@]1(C)O[C@@H]21` [JVM 2-35], in data set [1] (NCI five dose), the GI50 was found to be 5.04 µM, the IC (TGI) was 18.6 µM and the CC50 was 44.6 µM. For the same molecule, in data set [2], the GI50 is 6.13 µM, the CC50 was determined as 46.6 µM and the IC (TGI) worked out at 19.9 µM. For the same molecule, in data set [4], halving of growth (GI50) required 1.77 µM, the CC50 is 87 µM and the IC (TGI) stood at 6.4 µM.
As to `C=C1C(=O)O[C@H]2[C@H]1CC/C(COC(=O)OC)=C\CC[C@@]1(C)O[C@@H]21` [JVM 2-40], in data set [1] (NCI five dose), the GI50 amounted to 3.76 µM, the IC (TGI) is 18.7 µM and the CC50 was found to be 64.1 µM. Besides, in data set [2], the GI50 is 5.93 µM, the CC50 is 46.2 µM and the IC (TGI) worked out at 19.5 µM. In data set [4], the GI50 was 1.69 µM, the CC50 was 76.3 µM and the IC (TGI) amounted to 7.15 µM.
Consider `C=C1C(=O)O[C@H]2[C@H]1CC/C(COC(=O)NCCN1CCOCC1)=C\CC[C@@]1(C)O[C@@H]21` [JVM 57, ((1aR,7aS,10aS,10bS,E)-1a-methyl-8-methylene-9-oxo-1a,2,3,6,7,7a,8,9,10a,10b-decahydrooxireno[2′,3′:9,10]-cyclodeca[1,2-b]furan-5-yl)-methyl(2-morpholinoethyl)carbamate], for which the GI50 in data set [5] worked out at 6.12 µM; in data set [1] it was 10.1 µM; in data set [2], 11.8 µM; in data set [6], 5.72 µM; in data set [4], 3.59 µM. Also, the CC50 in data set [5] is 63.2 µM; in data set [1], 63.4 µM; in data set [2], 53.2 µM; in data set [6] it was greater than 100 µM; in data set [4], 85.1 µM. The TGI in data set [5] is 2.19E−5; in data set [6] it was 2.63E−5. Moreover, the “Percent Growth” value in data set [5] (Log10 Concentration −4.0) is reported as −72%; in data set [5] (Log10 Concentration −5.0) it was 37%; in data set [5] (Log10 Concentration −6.0), 97%; in data set [5] (Log10 Concentration −7.0), 91%; in data set [5] (Log10 Concentration −8.0), 100%; in data set [6] (Log10 Concentration −4.0), −47%. The “Percent Growth” value is given as 34% in data set [6] (Log10 Concentration −5.0), 99% in data set [6] (Log10 Concentration −6.0), 97% in data set [6] (Log10 Concentration −7.0) and 100% in data set [6] (Log10 Concentration −8.0). The IC (TGI) in data set [1] came to 25.3 µM; in data set [2], 25.1 µM; in data set [4], 16.1 µM. Besides, in data set [3], the “cytotoxicity compared to MMB” value is listed as “less active than MMB”.
Regarding `C=C1C(=O)O[C@H]2[C@H]1CC/C(COC(=O)NCCc1ccccn1)=C\CC[C@@]1(C)O[C@@H]21` [JVM 61, ((1aR,7aS,10aS,10bS,E)-1a-methyl-8-methylene-9-oxo-1a,2,3,6,7,7a,8,9,10a,10b-decahydrooxireno[2′,3′:9,10]cyclodeca[1,2-b]furan-5-yl)methyl-(2-(pyridin-2-yl)ethyl)carbamate], the GI50 in data set [5] was 7.52 µM; in data set [1], 7.17 µM; in data set [2], 6.29 µM; in data set [6], 8.2 µM. In addition, the CC50 in data set [5] is 84.9 µM; in data set [1], 72.3 µM; in data set [2], 49 µM; in data set [6], greater than 100 µM. Also, the TGI in data set [5] is reported as 2.71E−5; in data set [6], 3.88E−5. In addition, the “Percent Growth” value was −57% in data set [5] (Log10 Concentration −4.0); 44% in data set [5] (Log10 Concentration −5.0); 95% in data set [5] (Log10 Concentration −6.0); 100% in data set [5] (Log10 Concentration −7.0); 114% in data set [5] (Log10 Concentration −8.0); −65% in data set [1] (Log10 Concentration −4.0). Moreover, the “Percent Growth” value in data set [1] (Log10 Concentration −5.0) is 42%; in data set [1] (Log10 Concentration −6.0), 99%; in data set [1] (Log10 Concentration −7.0), 96%; in data set [1] (Log10 Concentration −8.0), 103%; in data set [2] (Log10 Concentration −4.0), −90%; in data set [2] (Log10 Concentration −5.0), 40%. Further, the “Percent Growth” value in data set [2] (Log10 Concentration −6.0) was 89%; in data set [2] (Log10 Concentration −7.0), 92%; in data set [2] (Log10 Concentration −8.0) it was 100%; in data set [6] (Log10 Concentration −4.0), −32%; in data set [6] (Log10 Concentration −5.0), 45%; in data set [6] (Log10 Concentration −6.0), 100%. Further, the “Percent Growth” value came to 100% in data set [6] (Log10 Concentration −7.0) and 102% in data set [6] (Log10 Concentration −8.0). In addition, the IC (TGI) in data set [1] came to 24.6 µM; in data set [2], 20.3 µM. Further, the “cytotoxicity compared to MMB” value in data set [3] was “almost equal cytotoxicity to MMB”.
Turning to `C=C1C(=O)O[C@H]2[C@H]1CC/C(COC(=O)Nc1n[nH]c(SC)n1)=C\CC[C@@]1(C)O[C@@H]21` [JVM 64, ((1aR,7aS,10aS,10bS,E)-1a-methyl-8-methylene-9-oxo-1a,2,3,6,7,7a,8,9,10a,10b-decahydrooxireno[2′,3′:9,10]cyclodeca[1,2-b]furan-5-yl)methyl-(5-(methylthio)-1H-1,2,4-triazol-3-yl)carbamate], the GI50 in data set [5] was 2.32 µM; in data set [1] (NCI five dose), 3.28 µM; in data set [2], 1.6 µM; in data set [6], 2.57 µM. Further, the CC50 in data set [5] is 78.8 µM; in data set [1] (NCI five dose), 62.4 µM; in data set [2], 15 µM; in data set [6], greater than 100 µM. In addition, the “Percent Growth” value in data set [5] (Log10 Concentration −4.0) was −54%; in data set [5] (Log10 Concentration −5.0), −12%; in data set [5] (Log10 Concentration −6.0), 66%; in data set [5] (Log10 Concentration −7.0), 99%; in data set [5] (Log10 Concentration −8.0), 104%; in data set [6] (Log10 Concentration −4.0) it was −46%. For the same molecule, the “Percent Growth” value in data set [6] (Log10 Concentration −5.0) is reported as −11%; in data set [6] (Log10 Concentration −6.0), 93%; in data set [6] (Log10 Concentration −7.0) it was 100%; in data set [6] (Log10 Concentration −8.0), 101%. In addition, the TGI turned out to be 7.53E−6 in data set [5] (NCI five dose) and 7.79E−6 in data set [6] (NCI five dose). Besides, the values for the IC (TGI) in data set [1] (NCI five dose) and in data set [2] were 19.3 µM and 4.35 µM, respectively. Also, the “cytotoxicity compared to MMB” value in data set [3] is on record as “more potent than MMB”. Besides, in data set [3], the “fold more cytotoxic than MMB” value was determined as 3 fold.
For the molecule `C=C1C(=O)O[C@H]2[C@H]1CC/C(COC(=O)CCC(=O)NCc1ccc(Cl)nc1)=C\CC[C@@]1(C)O[C@@H]21` [JVM 96], the 50% growth inhibitory concentration (GI50) came to 10.1 µM in data set [1], 6.61 µM in data set [2], 4.16 µM in data set [6] and 2.12 µM in data set [4]. Moreover, the IC (TGI) in data set [1] is 23.6 µM; in data set [2], 20.9 µM; in data set [4], 8.75 µM. Also, the CC50 is 55.2 µM in data set [1], 51.2 µM in data set [2], greater than 100 µM in data set [6] and greater than 100 µM in data set [4]. In addition, the “Percent Growth” value in data set [1] (Log10 Concentration −4.0) was −85%; in data set [1] (Log10 Concentration −5.0), 51%; in data set [1] (Log10 Concentration −6.0), 87%; in data set [1] (Log10 Concentration −7.0), 90%; in data set [1] (Log10 Concentration −8.0), 96%; in data set [2] (Log10 Concentration −4.0), −87%. For the same molecule, the “Percent Growth” value in data set [2] (Log10 Concentration −5.0) is given as 41%; in data set [2] (Log10 Concentration −6.0), 90%; in data set [2] (Log10 Concentration −7.0) it was 98%; in data set [2] (Log10 Concentration −8.0) it was 98%; in data set [6] (Log10 Concentration −4.0), −48%; in data set [6] (Log10 Concentration −5.0), 23%. The entries for the “Percent Growth” value in data set [6] (Log10 Concentration −6.0), in data set [6] (Log10 Concentration −7.0) and in data set [6] (Log10 Concentration −8.0) were 94%, 107% and 106%, respectively. In data set [6], this molecule displayed a TGI of 2.09E−5.
